Experimental data as given in patent US20260070945A1, “MACROCYCLIC IMMUNOMODULATORS” (Bristol-Myers Squibb Company, priority 2022, published 2026).
*1 amine or outer side, *2 acyl side, *3 side chain or, on linkers, in order; H or OH if unused. Where a SMILES comes first, the peptide text is derived from it. Bridges are numbered along the chain shown (N, C = ends). [ ]: non-standard residue; d: D form. The star is where a group is joined. ξ: configuration not given here. Phe(4-COOH) = N[C@@H](Cc1ccc(C(=O)O)cc1)C(=O)O; Bip = N[C@@H](Cc1ccc(-c2ccccc2)cc1)C(=O)O; Phe(3-Me) = Cc1cccc(C[C@H](N)C(=O)O)c1; X11 = CC[C@@H](C)C(N[*:1])C(=O)[*:2]; hArg = N=C(N)NCCCC[C@H](N)C(=O)O; 4Pal = N[C@@H](Cc1ccncc1)C(=O)O; Cha = N[C@@H](CC1CCCCC1)C(=O)O; Ile(3ξ) = CCC(C)[C@H](N)C(=O)O; Thr(3ξ) = CC(O)[C@H](N)C(=O)O; 12Ado = NCCCCCCCCCCCC(=O)O; Carboxymethyl = O=C(O)C*; NMeA = CN[C@@H](C)C(=O)O; Orn = NCCC[C@H](N)C(=O)O; Aun = NCCCCCCCCCCC(=O)O; Dab = NCC[C@H](N)C(=O)O; Dap = NC[C@H](N)C(=O)O; AEEA = NCCOCCOCC(=O)O

Each molecule was assayed against T1, PD-1/PD-L1 interaction (PE-labeled human PD-L1-Ig binding to Jurkat cell line over-expressing human PD-1) (Homo sapiens, UniProt Q15116) (assay: Jurkat-PD-1 Cell Binding High-Content Screening Assay (CBA)). Conditions: Jurkat-hPD-1 cells, PE-labeled PD-L1-Ig 20 nM final; read-out: Jurkat HPD1 PDL1 IC50.
T1 construct: expressed in transfected cells; host or cells: Jurkat
T1 sequence (Q15116 25-288): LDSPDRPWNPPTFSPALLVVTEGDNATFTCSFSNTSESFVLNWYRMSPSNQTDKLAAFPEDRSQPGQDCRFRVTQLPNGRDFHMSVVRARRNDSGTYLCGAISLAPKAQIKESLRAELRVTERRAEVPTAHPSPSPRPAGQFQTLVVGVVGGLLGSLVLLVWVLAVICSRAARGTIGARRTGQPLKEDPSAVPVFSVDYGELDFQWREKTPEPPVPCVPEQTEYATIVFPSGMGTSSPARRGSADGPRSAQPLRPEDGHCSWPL
In short: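 Binding of 20 nM (final) PE-tagged PD-L1-Ig to compound-pretreated Jurkat-hPD-1 cells was measured by high-content imaging after 1 h. Pretreatment ran 2 h at 37 °C in DMEM with 10% fetal calf serum.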

In order of rising IC50:
1. CC(C)C[C@H]1NC(=O)[C@H](C)N(C)C(=O)[C@H](C(C)C)NC(=O)[C@H](Cc2ccc(-c3ccccc3)cc2)NC(=O)[C@H](C(C)C)NC(=O)[C@H](Cc2c[nH]c3ccccc23)NC(=O)[C@H](CC(=O)O)NC(=O)[C@H](Cc2ccc(OCC(=O)O)cc2)NC(=O)[C@H](C(C)O)NC(=O)CSC[C@@H](C(=O)N[C@H](CC(N)=O)C(=O)NCCOCCOCC(=O)NCCCCCCCCCCCC(=O)O)NC(=O)[C@H](CCCN)NC(=O)[C@H](C(C)C)NC(=O)[C@H](CC2CCCCC2)NC(=O)[C@H](CCN)NC1=O (stereo partly drawn) [Example 2203] ({CH2CO}-[Thr(3ξ)]Y(Carboxymethyl)DWV[Bip]V[NMeA][dL][Dab][Cha]V[Orn]C[dN][AEEA][12Ado]-OH; thioether N-14)  9.5 nM
2. CC(C)C[C@@H]1NC(=O)[C@H](Cc2c[nH]c3ccccc23)NC(=O)[C@H](CC(=O)O)NC(=O)[C@H](Cc2ccc(C(=O)O)cc2)NC(=O)[C@H](Cc2ccc(OCC(=O)O)cc2)NC(=O)CSC[C@@H](C(=O)N[C@@H](CCN)C(=O)NCCOCCOCC(=O)NCCCCCCCCCCC(=O)O)NC(=O)[C@H](CCCCN)NC(=O)[C@H](C(C)C)NC(=O)[C@H](CC2CCCCC2)NC(=O)[C@H](CCN)NC(=O)[C@@H](C)NC(=O)[C@H](C)N(C)C(=O)[C@H](C(C)C)NC(=O)[C@H](Cc2ccc(-c3ccccc3)cc2)NC1=O [Example 2207] ({CH2CO}-Y(Carboxymethyl)[Phe(4-COOH)]DWL[Bip]V[NMeA][dA][Dab][Cha]VKC[Dab][AEEA][Aun]-OH; thioether N-14)  9.9 nM
3. CCC(C)[C@@H]1NC(=O)[C@H](Cc2ccc(-c3ccccc3)cc2)NC(=O)[C@H](C(C)C)NC(=O)[C@H](Cc2c[nH]c3ccccc23)NC(=O)[C@H](CC(=O)O)NC(=O)[C@H](Cc2ccc(OCC(=O)O)cc2)NC(=O)[C@H](C(C)O)NC(=O)CSC[C@@H](C(=O)N[C@H](CC(N)=O)C(=O)NCCCCCCCCCCC(=O)O)NC(=O)[C@H](CCCCN)NC(=O)[C@H](C(C)C)NC(=O)[C@H](CC2CCCCC2)NC(=O)[C@H](CCN)NC(=O)[C@@H](CC(C)C)NC(=O)[C@H](C)N(C)C1=O (stereo partly drawn) [Example 2210] ({CH2CO}-[Thr(3ξ)]Y(Carboxymethyl)DWV[Bip][Ile(3ξ)][NMeA][dL][Dab][Cha]VKC[dN][Aun]-OH; thioether N-14)  10 nM
4. Cc1cccc(C[C@@H]2NC(=O)[C@H](CC(=O)O)NC(=O)[C@H](Cc3ccc(O)cc3)NC(=O)[C@H](Cc3ccncc3)NC(=O)CSC[C@@H](C(=O)N[C@@H](CCN)C(=O)NCCCCCCCCCCC(=O)O)NC(=O)[C@H](CCCN)NC(=O)[C@H](C(C)C)NC(=O)[C@H](CC(C)C)NC(=O)[C@H](CCN)NC(=O)[C@@H](C)NC(=O)[C@H](C)N(C)C(=O)[C@H](C(C)C)NC(=O)[C@H](Cc3ccc(-c4ccccc4)cc3)NC(=O)[C@H](CC(C)C)NC2=O)c1 [Example 2201] ({CH2CO}-[4Pal]YD[Phe(3-Me)]L[Bip]V[NMeA][dA][Dab]LV[Orn]C[Dab][Aun]-OH; thioether N-14)  15.2 nM
5. CCC(C)[C@@H]1NC(=O)[C@H](Cc2ccc(-c3ccccc3)cc2)NC(=O)[C@H](C(C)C)NC(=O)[C@H](Cc2c[nH]c3ccccc23)NC(=O)[C@H](CC(=O)O)NC(=O)[C@H](Cc2ccc(OCC(=O)O)cc2)NC(=O)[C@H](C(C)O)NC(=O)CSC[C@@H](C(=O)N[C@H](CC(N)=O)C(=O)NCCCCCCCCCCC(=O)O)NC(=O)[C@H](CO)NC(=O)[C@H](C(C)C)NC(=O)[C@H](CC2CCCCC2)NC(=O)[C@H](CCN)NC(=O)[C@@H](CC(C)C)NC(=O)[C@H](C)N(C)C1=O (stereo partly drawn) [Example 2209] ({CH2CO}-[Thr(3ξ)]Y(Carboxymethyl)DWV[Bip][Ile(3ξ)][NMeA][dL][Dab][Cha]VSC[dN][Aun]-OH; thioether N-14)  15.6 nM
6. CC(C)C[C@H]1NC(=O)[C@H](C)N(C)C(=O)[C@H](C(C)C)NC(=O)[C@H](Cc2ccc(-c3ccccc3)cc2)NC(=O)[C@H](C(C)C)NC(=O)[C@H](Cc2c[nH]c3ccccc23)NC(=O)[C@H](CC(=O)O)NC(=O)[C@H](Cc2ccc(OCC(=O)O)cc2)NC(=O)[C@H](CCCNC(=N)N)NC(=O)CSC[C@@H](C(=O)N[C@H](CC(N)=O)C(=O)NCCOCCOCC(=O)NCCCCCCCCCCCC(=O)O)NC(=O)[C@H](CCCCN)NC(=O)[C@H](C(C)C)NC(=O)[C@H](CC2CCCCC2)NC(=O)[C@H](CCN)NC1=O [Example 2204] ({CH2CO}-RY(Carboxymethyl)DWV[Bip]V[NMeA][dL][Dab][Cha]VKC[dN][AEEA][12Ado]-OH; thioether N-14)  20.3 nM
7. CCC(C)[C@@H]1NC(=O)[C@H](Cc2ccc(-c3ccccc3)cc2)NC(=O)[C@H](CC(C)C)NC(=O)[C@H](Cc2cccc(C)c2)NC(=O)[C@H](CC(=O)O)NC(=O)[C@H](Cc2ccc(O)cc2)NC(=O)[C@H](Cc2ccncc2)NC(=O)CSC[C@@H](C(=O)N[C@@H](CCN)C(=O)NCCCCCCCCCCC(=O)O)NC(=O)[C@H](CCCCN)NC(=O)[C@H](C(C)C)NC(=O)[C@H](CC(C)C)NC(=O)[C@H](CCN)NC(=O)[C@@H](C)NC(=O)[C@H](C)N(C)C1=O (some centres unmarked) [Example 2200] ({CH2CO}-[4Pal]YD[Phe(3-Me)]L[Bip][Ile(3ξ)][NMeA][dA][Dab]LVKC[Dab][Aun]-OH; thioether N-14)  20.6 nM
8. CCC(C)[C@@H]1NC(=O)[C@H](Cc2ccc(-c3ccccc3)cc2)NC(=O)[C@H](C(C)C)NC(=O)[C@H](Cc2c[nH]c3ccccc23)NC(=O)[C@H](CC(=O)O)NC(=O)[C@H](Cc2ccc(OCC(=O)O)cc2)NC(=O)[C@H](C(C)O)NC(=O)CSC[C@@H](C(=O)N[C@H](CC(N)=O)C(=O)NCCOCCOCC(=O)NCCCCCCCCCCC(=O)O)NC(=O)[C@H](CCCCN)NC(=O)[C@H](C(C)C)NC(=O)[C@H](CC2CCCCC2)NC(=O)[C@H](CCN)NC(=O)[C@@H](CC(C)C)NC(=O)[C@H](C)N(C)C1=O (stereo partly drawn) [Example 2208] ({CH2CO}-[Thr(3ξ)]Y(Carboxymethyl)DWV[Bip][Ile(3ξ)][NMeA][dL][Dab][Cha]VKC[dN][AEEA][Aun]-OH; thioether N-14)  24.7 nM
9. CCC(C)[C@@H]1NC(=O)[C@H](Cc2ccc(-c3ccccc3)cc2)NC(=O)[C@H](CC(C)C)NC(=O)[C@H](Cc2cccc(C)c2)NC(=O)[C@H](CC(=O)O)NC(=O)[C@H](Cc2ccc(O)cc2)NC(=O)[C@H](Cc2ccncc2)NC(=O)CSC[C@@H](C(=O)N[C@@H](CN)C(=O)NCCCCCCCCCCC(=O)O)NC(=O)[C@H](CCCN)NC(=O)[C@H](C(C)C)NC(=O)[C@H](CC(C)C)NC(=O)[C@H](CCN)NC(=O)[C@@H](C)NC(=O)[C@H](C)N(C)C1=O (some centres unmarked) [Example 2202] ({CH2CO}-[4Pal]YD[Phe(3-Me)]L[Bip][Ile(3ξ)][NMeA][dA][Dab]LV[Orn]C[Dap][Aun]-OH; thioether N-14)  31.3 nM
10. Cc1cccc(C[C@@H]2NC(=O)[C@H](CC(=O)O)NC(=O)[C@H](Cc3ccc(O)cc3)NC(=O)[C@H](Cc3ccccc3)NC(=O)CSC[C@@H](C(=O)N[C@@H](CCN)C(=O)NCCCCCCCCCCC(=O)O)NC(=O)[C@H](CCCN)NC(=O)[C@H](C(C)C)NC(=O)[C@H](CC(C)C)NC(=O)[C@H](CCN)NC(=O)[C@@H](C)NC(=O)[C@H](C)N(C)C(=O)[C@H](C(C)C)NC(=O)[C@H](Cc3ccc(-c4ccccc4)cc3)NC(=O)[C@H](CC(C)C)NC2=O)c1 [Example 2198] ({CH2CO}-FYD[Phe(3-Me)]L[Bip]V[NMeA][dA][Dab]LV[Orn]C[Dab][Aun]-OH; thioether N-14)  73 nM
11. CC(C)C[C@@H]1NC(=O)[C@H](Cc2c[nH]c3ccccc23)NC(=O)[C@H](CC(=O)O)NC(=O)[C@H](Cc2c[nH]cn2)NC(=O)[C@H](CCCCNC(=N)N)NC(=O)CSC[C@@H](C(=O)N[C@@H](CCN)C(=O)NCCCCCCCCCCC(=O)O)NC(=O)[C@H](CCCN)NC(=O)[C@H](C(C)C)NC(=O)[C@H](CC2CCCCC2)NC(=O)[C@H](CCN)NC(=O)[C@@H](CC(C)C)NC(=O)[C@H](C)N(C)C(=O)[C@H](C(C)C)NC(=O)[C@H](Cc2ccc(-c3ccccc3)cc2)NC1=O [Example 2195] ({CH2CO}-[hArg]HDWL[Bip]V[NMeA][dL][Dab][Cha]V[Orn]C[Dab][Aun]-OH; thioether N-14)  80.3 nM
12. CCC(C)[C@@H]1NC(=O)[C@H](Cc2ccc(-c3ccccc3)cc2)NC(=O)[C@H](CC(C)C)NC(=O)[C@H](Cc2c[nH]c3ccccc23)NC(=O)[C@H](CC(=O)O)NC(=O)[C@H](Cc2ccc(OCC(=O)O)cc2)NC(=O)[C@H](CCCCNC(=N)N)NC(=O)CSC[C@@H](C(=O)N[C@@H](CCN)C(=O)NCCOCCOCC(=O)NCCCCCCCCCCC(=O)O)NC(=O)[C@H](CCCCN)NC(=O)[C@H](C(C)C)NC(=O)[C@H](CC2CCCCC2)NC(=O)[C@H](CCN)NC(=O)[C@H]2CCCN2C(=O)[C@H](C)N(C)C1=O (some centres unmarked) [Example 2206] ({CH2CO}-[hArg]Y(Carboxymethyl)DWL[Bip][Ile(3ξ)][NMeA][dP][Dab][Cha]VKC[Dab][AEEA][Aun]-OH; thioether N-14)  83.7 nM
13. CC[C@@H](C)C1NC(=O)[C@H](Cc2ccc(-c3ccccc3)cc2)NC(=O)[C@H](CC(C)C)NC(=O)[C@H](Cc2cccc(C)c2)NC(=O)[C@H](CC(=O)O)NC(=O)[C@H](Cc2ccc(O)cc2)NC(=O)[C@H](Cc2ccccc2)NC(=O)CSC[C@@H](C(=O)N[C@@H](CCN)C(=O)NCCCCCCCCCCC(=O)O)NC(=O)[C@H](CCCCN)NC(=O)[C@H](C(C)C)NC(=O)[C@H](CC(C)C)NC(=O)[C@H](CCN)NC(=O)[C@@H](C)NC(=O)[C@H](C)N(C)C1=O (some centres unmarked) [Example 2197] ({CH2CO}-FYD[Phe(3-Me)]L[Bip][X11][NMeA][dA][Dab]LVKC[Dab][Aun]-OH; thioether N-14)  94 nM
14. CCC(C)[C@@H]1NC(=O)[C@H](Cc2ccc(-c3ccccc3)cc2)NC(=O)[C@H](CC(C)C)NC(=O)[C@H](Cc2cccc(C)c2)NC(=O)[C@H](CC(=O)O)NC(=O)[C@H](Cc2ccc(O)cc2)NC(=O)[C@H](Cc2ccccc2)NC(=O)CSC[C@@H](C(=O)N[C@@H](CN)C(=O)NCCCCCCCCCCC(=O)O)NC(=O)[C@H](CCCN)NC(=O)[C@H](C(C)C)NC(=O)[C@H](CC(C)C)NC(=O)[C@H](CCN)NC(=O)[C@@H](C)NC(=O)[C@H](C)N(C)C1=O (some centres unmarked) [Example 2199] ({CH2CO}-FYD[Phe(3-Me)]L[Bip][Ile(3ξ)][NMeA][dA][Dab]LV[Orn]C[Dap][Aun]-OH; thioether N-14)  132 nM
